{"source": "patent US11535679B2", "about": "“Bispecific antibody against CD3 and CD20 in combination therapy for treating follicular lymphoma” (GENMAB A/S, priority 2020, dated 2022)", "key": {"SU-DHL-4 cells": {"system": "SU-DHL-4 cells", "assay_type": "cell-based, human", "details": "bendamustine alone, 0-20 μM, 48 hours", "protocol": "(§1) Briefly, Human Burkitt lymphoma (Raji [ATCC, cat. no. CCL-86]) and DLBCL (SU-DHL-4 [Deutsche Sammlung von Mikroorganismen and Zellkulturen—DSMZ, cat. no. ACC-495]) cell lines were used as target cells. Cells were cultured in culture medium (RPMI 1640 with HEPES and L-Glutamine supplemented with 10% heat-inactivated donor bovine serum with iron, and 1% [v/v] penicillin/streptomycin) to which 2 mM L-glutamine, and 1 mM sodium pyruvate were added, at 37° C., 5% CO2. T cells, which were isolated from human healthy donor buffy coats by negative selection using the RosetteSep™ Human T Cell Enrichment Cocktail (Stemcell Technologies) followed by density centrifugation over a Ficoll gradient, both according to the manufacturer's instructions, were used as effector cells. Isolated cells were washed twice in phosphate buffered saline (PBS) and counted using acridine orange/propidium iodide (AO/PI) viability staining solution (Nexcelom Bioscience) on a Cellometer® Auto 2000 Cell Viability Counter. […] B-cell viability and T-cell activation were measured by flow cytometry (count of CD22-positive cells; expression of the activation markers CD69, CD25, and CD107 [LAMP-1] on CD4+ and CD8+ T cells). The percentage cytotoxicity was calculated as follows: % cytotoxicity=100−([cell countsample/cell countno antibody]×100%)"}, "Raji cells": {"system": "Raji cells", "assay_type": "cell-based, human", "details": "bendamustine alone, 0-20 μM, 48 hours", "protocol": "as §1"}, "follicular lymphoma": {"system": "follicular lymphoma", "details": "double-refractory cases; cited from earlier work"}, "[1]": {"system": "T cells in presence of Raji cells", "assay": "In vitro T-cell activation assay, T cells incubated with Raji cells", "assay_type": "cell-based, human", "details": "Raji target cells", "protocol": "(§2) Briefly, Human Burkitt lymphoma (Raji [ATCC, cat. no. CCL-86]) and DLBCL (SU-DHL-4 [Deutsche Sammlung von Mikroorganismen and Zellkulturen—DSMZ, cat. no. ACC-495]) cell lines were used as target cells. Cells were cultured in culture medium (RPMI 1640 with HEPES and L-Glutamine supplemented with 10% heat-inactivated donor bovine serum with iron, and 1% [v/v] penicillin/streptomycin) to which 2 mM L-glutamine, and 1 mM sodium pyruvate were added, at 37° C., 5% CO2. T cells, which were isolated from human healthy donor buffy coats by negative selection using the RosetteSep™ Human T Cell Enrichment Cocktail (Stemcell Technologies) followed by density centrifugation over a Ficoll gradient, both according to the manufacturer's instructions, were used as effector cells. Isolated cells were washed twice in phosphate buffered saline (PBS) and counted using acridine orange/propidium iodide (AO/PI) viability staining solution (Nexcelom Bioscience) on a Cellometer® Auto 2000 Cell Viability Counter. T cells (100,000 cells/well) were incubated with Raji or SU-DHL-4 cells (50,000 cells/well) in culture medium in the presence of epcoritamab (0.033 pg/mL-333 ng/mL) and bendamustine (0-20 μM) at 37° C., 5% CO2 for 48 hours. B-cell viability and T-cell activation were measured by flow cytometry (count of CD22-positive cells; expression of the activation markers CD69, CD25, and CD107 [LAMP-1] on CD4+ and CD8+ T cells). The percentage cytotoxicity was calculated as follows: % cytotoxicity=100−([cell countsample/cell countno antibody]×100%)"}, "[2]": {"system": "T cells in presence of SU-DHL-4 cells", "assay": "In vitro T-cell activation assay, T cells incubated with SU-DHL-4 cells", "assay_type": "cell-based, human", "details": "SU-DHL-4 target cells", "protocol": "as §2"}, "[3]": {"system": "CD20-expressing Raji-luc tumor cells", "details": "NOD-SCID mice injected with Raji-luc tumor cells and PBMCs; even in presence of excess IgG1-RTX-FEAR; cited from earlier work"}, "[4]": {"system": "primary DLBCL and follicular lymphoma patient biopsies", "details": "biopsies taken a certain time after anti-CD20 antibody administration; cited from earlier work"}, "R/R B-NHL patients": {"system": "R/R B-NHL patients", "assay": "Ongoing clinical trial of epcoritamab monotherapy (NCT03625037)", "assay_type": "in vivo, human", "details": "preliminary data", "excerpt": "Epcoritamab as monotherapy is currently in a clinical trial for the treatment of relapsed/refractory (R/R) B-NHL (ClinicalTrials.gov Identifier: NCT03625037)."}, "CD20": {"biological_target": "T1, CD20 (Homo sapiens, UniProt P11836)", "T1 sequence (P11836 1-297)": "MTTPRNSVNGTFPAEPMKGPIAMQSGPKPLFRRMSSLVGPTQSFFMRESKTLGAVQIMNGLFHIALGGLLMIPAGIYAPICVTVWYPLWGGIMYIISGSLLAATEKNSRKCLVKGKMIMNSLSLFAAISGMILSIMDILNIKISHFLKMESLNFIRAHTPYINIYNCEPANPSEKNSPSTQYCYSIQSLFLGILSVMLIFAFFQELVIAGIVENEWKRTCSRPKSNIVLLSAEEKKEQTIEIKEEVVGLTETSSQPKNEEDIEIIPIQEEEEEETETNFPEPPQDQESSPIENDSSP", "details": "rituximab versus IgG1-CD20; different epitopes; cited from earlier work"}, "[5]": {"details": "bendamustine 0-20 μM, data not shown"}, "[6]": {"details": "epcoritamab 0.033 pg/mL-333 ng/mL, 48 hours"}}, "data": [{"compound": "Cn1c(CCCC(=O)O)nc2cc(N(CCCl)CCCl)ccc21", "note": "[bendamustine, 4-[5-[Bis(2-chloroethyl)amino]-1-methyl-1H-benzo[d]imidazole-2-yl]butanoic acid]", "values": [{"measurement": "number of viable B cells", "setting": "SU-DHL-4 cells", "result": "decreased the number of viable B cells in a dose dependent manner"}, {"measurement": "number of viable B cells", "setting": "Raji cells", "result": "decreased the number of viable B cells in a dose dependent manner"}]}, {"compound": "CC[C@H](Nc1ncnc2[nH]cnc12)c1nc2cccc(F)c2c(=O)n1-c1ccccc1", "note": "[idelalisib]", "values": [{"measurement": "1-year PFS", "setting": "follicular lymphoma", "result": 43, "unit": "%"}, {"measurement": "toxicities", "setting": "follicular lymphoma", "result": "several toxicities leading to treatment discontinuation"}]}, {"compound": "Epcoritamab: IgG1 bispecific CD3xCD20 antibody, heavy/light chains SEQ ID NOs: 24, 25 and 26, 27; CAS 2134641-34-0", "values": [{"measurement": "epcoritamab-induced T-cell activation in presence of bendamustine", "setting": "[1]; bendamustine 0-20 μM, 48 hours", "result": "not affected by the presence of bendamustine at all concentrations tested"}, {"measurement": "upregulation of activation markers on CD4+ T cells in presence of bendamustine", "setting": "[1]; [5]", "result": "not affected by bendamustine"}, {"measurement": "activation of CD8+ T cells (CD69, CD25, LAMP-1 upregulation)", "setting": "[1]; [6]", "result": "induced concentration-dependent activation of CD8+ T cells"}, {"measurement": "epcoritamab-induced T-cell activation in presence of bendamustine", "setting": "[2]; bendamustine 0-20 μM, 48 hours", "result": "not affected by the presence of bendamustine at all concentrations tested"}, {"measurement": "upregulation of activation markers on CD4+ T cells in presence of bendamustine", "setting": "[2]; [5]", "result": "not affected by bendamustine"}, {"measurement": "activation of CD8+ T cells (CD69, CD25, LAMP-1 upregulation)", "setting": "[2]; [6]", "result": "induced concentration-dependent activation of CD8+ T cells"}, {"measurement": "tumor growth", "setting": "[3]", "result": "effectively reduce tumor growth"}, {"measurement": "T-cell-mediated cytotoxicity", "setting": "[4]", "result": "induced T-cell-mediated cytotoxicity"}, {"measurement": "tolerability", "setting": "R/R B-NHL patients", "result": "tolerated at doses up to at least 48 mg, including 60 mg"}]}, {"compound": "IgG1-CD20: CD20 antibody of which the CD20 arm of epcoritamab is derived", "values": [{"measurement": "competition for CD20 binding", "setting": "CD20", "result": "compete for CD20 binding"}]}]}
